Laboratory results taken from paper PMC7561186, “Rational design of balanced dual-targeting antibiotics with limited resistance” (PLoS Biology, 2020).
Values after ≈ are worked out from the molar mass of the structure shown. Where two headings read alike, the source gives them in different places.

Columns and labels:
[1] = system: multidrug-resistant Staphylococcus, Enterococcus, and Streptococcus isolates; assay: MIC against multidrug-resistant gram-positive isolates (summary); format: cell-based; conditions: read-out: MIC values against all studied multidrug-resistant Staphylococcus, Enterococcus, and Streptococcus isolates
Procedure: MICs were determined using a standard serial broth microdilution technique according to the CLSI guidelines. Briefly, bacterial strains were inoculated onto MHBII agar plates and were grown overnight at 37 °C. Next, 3 individual colonies from each strain were inoculated into 1 mL MHBII medium and propagated at 37 °C, 250 rpm overnight. In the cases of Enterococcus and Streptococcus sp., cells were plated to BHI agar plates, and BHI broth was used to determine MICs. […] Following dilutions, each well was seeded with 5×10^4 bacterial cells. All measurements were performed in 3 parallel replicates and to avoid possible edge effects in microwell plates, side rows (A and H) were filled with sterile medium. Following inoculations, plates were covered with lids and wrapped in polyethylene plastic bags to minimize evaporation but allow for O2 transfer. Plates were incubated at 37 °C under continuous shaking at 150 rpm for 18 hours. After incubation, OD600 of each well was measured using a BioTek Synergy 2 microplate reader.

[2] = system: S. aureus clinical isolates; assay: microbe, parasite or virus in culture; format: cell-based

Q: `Cc1[nH]c(C(=O)Nc2nc3c(OCc4ccccc4)cc(C(=O)O)cc3s2)c(Cl)c1Cl` [ULD2] was tested. Which MIC [1] did it give?
A: < 2 µg/mL

Q: What about the MIC ([2]; S. aureus ATCC 29213, MSSA / VSSA, test date 2018-10-25 (three repeat lines)) of the same compound?
A: 0.5 µg/mL (≈ 1.05 µM)

Q: What about the MIC ([2]; Staphylococcus aureus, ATCC 29213 / MSSA, S. aureus ATCC 29213, MSSA / VSSA, test date 2018-10-25 (three repeat lines), read-out: MIC) of the same compound?
A: 0.25 µg/mL (≈ 0.525 µM)

Q: What about the MIC ([2]; Staphylococcus aureus, ATCC 29213 / MSSA, S. aureus ATCC 29213, MSSA / VSSA, test date 2018-11-07, read-out: MIC) of the same compound?
A: 0.25 µg/mL (≈ 0.525 µM)

Q: And the MIC ([2]; Staphylococcus aureus, MRSA / NRS 3 / VISA, S. aureus IHMA 1308243, NRS3, MRSA / VISA, read-out: MIC)?
A: 0.5 µg/mL (≈ 1.05 µM)

Q: What about the MIC ([2]; Staphylococcus aureus, MRSA / NRS 4 / VISA, S. aureus IHMA 649380, NRS4, MRSA / VISA, read-out: MIC) of the same compound?
A: 0.25 µg/mL (≈ 0.525 µM)

Q: What about the MIC ([2]; Staphylococcus aureus, MRSA / NRS 18 / VISA, S. aureus IHMA 649386, NRS18, MRSA / VISA, read-out: MIC) of the same compound?
A: 0.5 µg/mL (≈ 1.05 µM)

Q: What about the MIC ([2]; Staphylococcus aureus, MRSA / NRS 19 / VISA, S. aureus IHMA 649387, NRS19, MRSA / VISA, read-out: MIC) of the same compound?
A: 0.25 µg/mL (≈ 0.525 µM)

Q: What about the MIC ([2]; Staphylococcus aureus, MRSA / NRS 21 / VISA, S. aureus IHMA 649388, NRS21, MRSA / VISA, read-out: MIC) of the same compound?
A: 0.25 µg/mL (≈ 0.525 µM)

Q: What about the MIC ([2]; Staphylococcus aureus, MRSA / NRS 22 / USA600 / VISA, S. aureus IHMA 649389, NRS22, MRSA / VISA, USA600, read-out: MIC) of the same compound?
A: 0.5 µg/mL (≈ 1.05 µM)

Q: What about the MIC ([2]; Staphylococcus aureus, MRSA / NRS 23 / VISA, S. aureus IHMA 649390, NRS23, MRSA / VISA, read-out: MIC) of the same compound?
A: 0.5 µg/mL (≈ 1.05 µM)

Q: What about the MIC ([2]; Staphylococcus aureus, MRSA / NRS 24 / VISA, S. aureus IHMA 649391, NRS24, MRSA / VISA, read-out: MIC) of the same compound?
A: 0.25 µg/mL (≈ 0.525 µM)

Q: And the MIC ([2]; Staphylococcus aureus, MRSA / NRS 26, S. aureus IHMA 649392, NRS26, MRSA / VSSA, read-out: MIC)?
A: 0.5 µg/mL (≈ 1.05 µM)

Q: What about the MIC ([2]; Staphylococcus aureus, MRSA / NRS 27 / VISA, S. aureus IHMA 1308248, NRS27, MRSA / VISA, read-out: MIC) of the same compound?
A: 0.5 µg/mL (≈ 1.05 µM)

Q: And the MIC ([2]; Staphylococcus aureus, MRSA / NRS 29 / VISA, S. aureus IHMA 1308250, NRS29, MRSA / VISA, read-out: MIC)?
A: 0.25 µg/mL (≈ 0.525 µM)

Q: What about the MIC ([2]; Staphylococcus aureus, MRSA / NRS 37 / VISA, S. aureus IHMA 1308251, NRS37, MRSA / VISA, read-out: MIC) of the same compound?
A: 0.5 µg/mL (≈ 1.05 µM)

Q: And the MIC ([2]; Staphylococcus aureus, MRSA / NRS 54, S. aureus IHMA 1308253, NRS54, MRSA / VSSA* (*Expected VAN intermediate, confirmed VAN susceptible twice), test date 2018-11-07, read-out: MIC)?
A: 0.12 µg/mL (≈ 0.252 µM)

Q: What about the MIC ([2]; Staphylococcus aureus, MRSA / NRS 56 / VISA, S. aureus IHMA 1308254, NRS56, MRSA / VISA, read-out: MIC) of the same compound?
A: 0.25 µg/mL (≈ 0.525 µM)

Q: And the MIC ([2]; Staphylococcus aureus, MRSA / USA100 / VRSA, S. aureus IHMA 672230, VRS1, MRSA / VRSA, USA100, read-out: MIC)?
A: 0.25 µg/mL (≈ 0.525 µM)

Q: What about the MIC ([2]; Staphylococcus aureus, MRSA / USA100 / VRSA, S. aureus IHMA 672231, VRS2, MRSA / VRSA, USA100, read-out: MIC) of the same compound?
A: 0.25 µg/mL (≈ 0.525 µM)

Q: And the MIC ([2]; Staphylococcus aureus, MRSA / USA100 / VRSA, S. aureus IHMA 672234, VRS4, MRSA / VRSA, USA100, read-out: MIC)?
A: 0.25 µg/mL (≈ 0.525 µM)

Q: And the MIC ([2]; Staphylococcus aureus, MRSA / USA100 / VRSA, S. aureus IHMA 672235, VRS5, MRSA / VRSA, USA100, read-out: MIC)?
A: 0.25 µg/mL (≈ 0.525 µM)

Q: And the MIC ([2]; Staphylococcus aureus, MRSA / USA100 / VRSA, S. aureus IHMA 672237, VRS7, MRSA / VRSA, USA100, read-out: MIC)?
A: 0.25 µg/mL (≈ 0.525 µM)

Q: What about the MIC ([2]; Staphylococcus aureus, MRSA / USA100 / VRSA, S. aureus IHMA 672238, VRS8, MRSA / VRSA, USA100, read-out: MIC) of the same compound?
A: 0.25 µg/mL (≈ 0.525 µM)

Q: What about the MIC ([2]; Staphylococcus aureus, MRSA / USA100 / VRSA, S. aureus IHMA 672239, VRS9, MRSA / VRSA, USA100, read-out: MIC) of the same compound?
A: 0.25 µg/mL (≈ 0.525 µM)

Q: And the MIC ([2]; Staphylococcus aureus, MRSA / USA100 / VRSA, S. aureus IHMA 1308256, VRS10, MRSA / VRSA, USA100, read-out: MIC)?
A: 0.5 µg/mL (≈ 1.05 µM)

Q: What about the MIC ([2]; Staphylococcus aureus, MRSA / USA100 / VRSA, S. aureus IHMA 1308258, VRS11b, MRSA / VRSA, USA100, read-out: MIC) of the same compound?
A: 0.25 µg/mL (≈ 0.525 µM)

Q: And the MIC ([2]; Staphylococcus aureus, MRSA / USA800 / VRSA, S. aureus IHMA 672233, VRS3b, MRSA / VRSA, USA800, read-out: MIC)?
A: 0.06 µg/mL (≈ 0.126 µM)

Q: What about the MIC ([2]; Staphylococcus aureus, MRSA / VISA / VRSA, all isolates of the panel (MRSA, VISA, VRSA), read-out: MIC against all tested S. aureus clinical isolates) of the same compound?
A: ≤ 1 µg/mL

Q: What about the MIC ([2]; Staphylococcus aureus, MRSA, S. aureus IHMA 1569509, MRSA / VSSA, read-out: MIC) of the same compound?
A: 0.12 µg/mL (≈ 0.252 µM)

Q: And the MIC ([2]; Staphylococcus aureus, MRSA, S. aureus IHMA 1575268, MRSA / VSSA, read-out: MIC)?
A: 0.25 µg/mL (≈ 0.525 µM)

Q: What about the MIC ([2]; Staphylococcus aureus, MRSA, S. aureus IHMA 1575629, MRSA / VSSA, read-out: MIC) of the same compound?
A: 0.25 µg/mL (≈ 0.525 µM)

Q: What about the MIC ([2]; Staphylococcus aureus, MRSA, S. aureus IHMA 1577820, MRSA / VSSA, read-out: MIC) of the same compound?
A: 0.5 µg/mL (≈ 1.05 µM)

Q: What about the MIC ([2]; Staphylococcus aureus, MRSA, S. aureus IHMA 1580300, MRSA / VSSA, read-out: MIC) of the same compound?
A: 0.12 µg/mL (≈ 0.252 µM)

Q: And the MIC ([2]; Staphylococcus aureus, MRSA, S. aureus IHMA 1580940, MRSA / VSSA, read-out: MIC)?
A: 0.5 µg/mL (≈ 1.05 µM)

Q: And the MIC ([2]; Staphylococcus aureus, MRSA, S. aureus IHMA 1582100, MRSA / VSSA, read-out: MIC)?
A: 0.25 µg/mL (≈ 0.525 µM)

Q: And the MIC ([2]; Staphylococcus aureus, MRSA, S. aureus IHMA 1583795, MRSA / VSSA, read-out: MIC)?
A: 1 µg/mL (≈ 2.1 µM)

Q: And the MIC ([2]; Staphylococcus aureus, MRSA, S. aureus IHMA 1584223, MRSA / VSSA, read-out: MIC)?
A: 0.5 µg/mL (≈ 1.05 µM)

Q: What about the MIC ([2]; Staphylococcus aureus, MRSA, S. aureus IHMA 1585316, MRSA / VSSA, read-out: MIC) of the same compound?
A: 0.25 µg/mL (≈ 0.525 µM)

Q: And the MIC ([2]; Staphylococcus aureus, MRSA, S. aureus IHMA 1586780, MRSA / VSSA, read-out: MIC)?
A: 0.25 µg/mL (≈ 0.525 µM)

Q: And the MIC ([2]; Staphylococcus aureus, MRSA, S. aureus IHMA 1587322, MRSA / VSSA, read-out: MIC)?
A: 0.25 µg/mL (≈ 0.525 µM)

Q: What about the MIC ([2]; Staphylococcus aureus, MRSA, S. aureus IHMA 1588127, MRSA / VSSA, read-out: MIC) of the same compound?
A: 0.25 µg/mL (≈ 0.525 µM)

Q: What about the MIC ([2]; Staphylococcus aureus, MRSA, S. aureus IHMA 1591462, MRSA / VSSA, read-out: MIC) of the same compound?
A: 0.12 µg/mL (≈ 0.252 µM)

Q: What about the MIC ([2]; Staphylococcus aureus, MRSA, S. aureus IHMA 1592755, MRSA / VSSA, read-out: MIC) of the same compound?
A: 0.5 µg/mL (≈ 1.05 µM)

Q: And the MIC ([2]; Staphylococcus aureus, MRSA, S. aureus IHMA 1592776, MRSA / VSSA, read-out: MIC)?
A: 0.25 µg/mL (≈ 0.525 µM)

Q: What about the MIC ([2]; Staphylococcus aureus, MRSA, S. aureus IHMA 1597106, MRSA / VSSA, read-out: MIC) of the same compound?
A: 0.5 µg/mL (≈ 1.05 µM)

Q: What about the MIC ([2]; Staphylococcus aureus, MRSA, S. aureus IHMA 1602095, MRSA / VSSA, read-out: MIC) of the same compound?
A: 0.25 µg/mL (≈ 0.525 µM)

Q: And the MIC ([2]; Staphylococcus aureus, MRSA, S. aureus IHMA 1611170, MRSA / VSSA, read-out: MIC)?
A: 0.25 µg/mL (≈ 0.525 µM)

Q: What about the MIC ([2]; Staphylococcus aureus, MRSA, S. aureus IHMA 1611612, MRSA / VSSA, read-out: MIC) of the same compound?
A: 0.25 µg/mL (≈ 0.525 µM)

Q: And the MIC ([2]; Staphylococcus aureus, MRSA, S. aureus IHMA 1612228, MRSA / VSSA, read-out: MIC)?
A: 0.25 µg/mL (≈ 0.525 µM)

Q: What about the MIC ([2]; Staphylococcus aureus, MRSA, S. aureus IHMA 1620441, MRSA / VSSA, read-out: MIC) of the same compound?
A: 0.25 µg/mL (≈ 0.525 µM)

Q: What about the MIC ([2]; Staphylococcus aureus, MRSA, S. aureus IHMA 1621638, MRSA / VSSA, read-out: MIC) of the same compound?
A: 0.5 µg/mL (≈ 1.05 µM)

Q: What about the MIC ([2]; Staphylococcus aureus, MRSA, S. aureus IHMA 1622252, MRSA / VSSA, read-out: MIC) of the same compound?
A: 0.5 µg/mL (≈ 1.05 µM)
